# Data as given in US8461175B2, “1-pyrazolo[4,3-c]isoquinoline derivatives, preparation thereof and therapeutic use thereof” (Sanofi-Aventis, priority 2009, dated 2013).
# Tested on: HeLa Cells (ATCC CCL-2)
# Test: Determination of IC50 for HeLa cells, proliferation by 14C-thymidine incorporation
# Assay type: cell-based
# Details: total treatment 96 h
# Description: Determination of IC50 for HeLa Cells (ATCC CCL-2)
# This test is carried out using adherent tumour cell lines. Their proliferation is measured via the amount of ^14C-thymidine incorporated within the cells. These cells are placed in 96-well Cytostar plates with the culture medium and are incubated for 4 h at 37° C.-5% CO2. The products under test are then added and the plates are replaced in the incubator. ^14C-thymidine is added to the medium after 72 h of treatment and the cells are then incubated for 24 h. The incorporation of ^14C-thymidine is measured using a MicroBeta reader (Perkin Elmer) after these 24 h of “pulse”. The total time of treatment of the cells with the product under test is 96 h.
# For each assay, the plates are prepared at the cell concentrations employed. The products are tested at 10 concentrations in duplicate. The first concentration is usually 10 μM, but it may vary, as may the degree of dilution, depending on the activity level of the products. The serial dilutions are made in pure DMSO and then each concentration is diluted in the culture medium. All of the products are tested in two independent assays.
# • Dulbecco (Gibco 11960-044) • Inactivated foetal calf serum (FCS) (Gibco 10500-056) • Penicillin-Streptomycin-Glutamine (PSG) (Gibco 10378-016) • 96-well Cytostar plate (Amersham RPNQ0162) • DMSO (Sigma D2650) • ^14C-Thymidine (NEN NEC-568)
SMILES,IC50 (Homo sapiens),IC50
"NS(=O)(=O)N1CCC(Nc2n[nH]c3c2nc(-c2c(F)cccc2F)c2cc(C=NO)ccc23)CC1 (mixture of isomers) [Example 23, 4-({5-(2,6-difluorophenyl)-7-[(E/Z)-(hydroxyimino)methyl]-1H-pyrazolo[4,3-c]isoquinolin-3-yl}amino)piperidine-1-sulphonamide]",,0.126 µM
CS(=O)(=O)N1CCC(Nc2n[nH]c3c2nc(-c2c(F)cccc2F)c2cc(CO)ccc23)CC1 [Example 3],,0.248 µM
"C=Cc1ccc2c(c1)c(-c1c(F)cccc1F)nc1c(NC3CCN(S(C)(=O)=O)CC3)n[nH]c12 [Example 5, 5-(2,6-difluorophenyl)-3-{[1-(methylsulphonyl)piperidin-4-yl]amino}-7-vinyl-1H-pyrazolo[4,3-c]isoquinoline]",2.58 µM,
"C#Cc1ccc2c(c1)c(-c1c(F)cccc1F)nc1c(NC3CCN(S(C)(=O)=O)CC3)n[nH]c12 [Example 7, 5-(2,6-difluorophenyl)-3-{[1-(methylsulphonyl)piperidin-4-yl]amino}-7-ethynyl-1H-pyrazolo[4,3-c]isoquinoline]",1.5 µM,
"COC(=O)c1ccc2c(c1)c(-c1c(F)cccc1F)nc1c(NC3CCN(S(C)(=O)=O)CC3)n[nH]c12 [Example 8, Methyl 5-(2,6-difluorophenyl)-3-{[1-(methylsulphonyl)piperidin-4-yl]amino}-1H-pyrazolo[4,3-c]isoquinoline-7-carboxylate]",7.29 µM,
CS(=O)(=O)N1CCC(Nc2n[nH]c3c2nc(-c2c(F)cccc2F)c2ccccc23)CC1 [Example 10],,2.04 µM
"N#Cc1ccc2c(c1)c(-c1c(F)cccc1F)nc1c(NC3CCN(S(=O)(=O)C4CC4)CC3)n[nH]c12 [Example 11, 5-(2,6-difluorophenyl)-3-{[1-(cyclopropylsulphonyl)piperidin-4-yl]amino}-1H-pyrazolo[4,3-c]isoquinoline-7-carbonitrile]",0.909 µM,
"CCS(=O)(=O)N1CCC(Nc2n[nH]c3c2nc(-c2c(F)cccc2F)c2cc(C#N)ccc23)CC1 [Example 13, 5-(2,6-difluorophenyl)-3-([1-(ethylsulphonyl)piperidin-4-yl]amino}-1H-pyrazolo[4,3-c]isoquinoline-7-carbonitrile]",0.954 µM,
"CS(=O)(=O)N1CCC(Nc2n[nH]c3c2nc(-c2c(F)cccc2F)c2cc(C(=N)NO)ccc23)CC1 [Example 16, 5-(2,6-difluorophenyl)-N-hydroxy-3-{[1-(methylsulphonyl)piperidin-4-yl]amino}-1H-pyrazolo[4,3-c]isoquinoline-7-carboximidamide]",2.35 µM,
CS(=O)(=O)N1CCC(Nc2n[nH]c3c2nc(-c2c(F)cccc2F)c2cc(CF)ccc23)CC1 [Example 17],,0.263 µM
CCS(=O)(=O)N1CCC(Nc2n[nH]c3c2nc(-c2c(F)cccc2F)c2cc(CO)ccc23)CC1 [Example 21],,0.338 µM
"CS(=O)(=O)N1CCC(Nc2n[nH]c3c2nc(-c2c(F)cccc2F)c2cc(-c4cn[nH]c4)ccc23)CC1 [Example 24, 5-(2,6-difluorophenyl)-N-[1-(methylsulphonyl)piperidin-4-yl]-7-(1H-pyrazol-4-yl)-1H-pyrazolo[4,3-c]isoquinolin-3-amine]",2.12 µM,
"CS(=O)(=O)N1CCC(Nc2n[nH]c3c2nc(-c2c(F)cccc2F)c2cc(-c4cn[nH]n4)ccc23)CC1 [Example 25, 5-(2,6-difluorophenyl)-N-[1-(methylsulphonyl)piperidin-4-yl]-7-(2H-1,2,3-triazol-4-yl)-1H-pyrazolo[4,3-c]isoquinolin-3-amine]",2.28 µM,
"N#Cc1ccc2c(c1)c(-c1c(F)cccc1F)nc1c(NC3CCN(S(N)(=O)=O)CC3)n[nH]c12 [Example 26, 4-{[7-cyano-5-(2,6-difluorophenyl)-1H-pyrazolo[4,3-c]isoquinolin-3-yl]amino}piperidine-1-sulphonamide]",1.66 µM,

# The remaining molecules from weak to strong by IC50 (Homo sapiens), led by results:
IC50 (Homo sapiens),SMILES,IC50
0.899 µM,"CS(=O)(=O)N1CCC(Nc2n[nH]c3c2nc(-c2c(F)cccc2F)c2cc(C#N)ccc23)CC1 [Example 12, 5-(2,6-difluorophenyl)-3-{[1-(methylsulphonyl)piperidin-4-yl]amino}-1H-pyrazolo[4,3-c]isoquinoline-7-carbonitrile]",
0.89 µM,"CS(=O)(=O)N1CCC(Nc2n[nH]c3c2nc(-c2c(F)cccc2F)c2cc(F)ccc23)CC1 [Example 6, 5-(2,6-difluorophenyl)-7-fluoro-3-{[1-(methylsulphonyl)piperidin-4-yl]amino}-1H-pyrazolo[4,3-c]isoquinoline]",
0.789 µM,"NC(=O)c1ccc2c(c1)c(-c1c(F)cccc1F)nc1c(NC3CCN(S(=O)(=O)C(F)(F)F)CC3)n[nH]c12 [Example 4, 5-(2,6-difluorophenyl)-3-{[1-(trifluoromethanesulphonyl)piperidin-4-yl]amino}-1H-pyrazolo[4,3-c]isoquinoline-7-carboxamide]",
0.597 µM,"CS(=O)(=O)N1CCC(Nc2n[nH]c3c2nc(-c2c(F)cccc2F)c2cc(C(N)=S)ccc23)CC1 [Example 9, 5-(2,6-difluorophenyl)-3-{[1-(methylsulphonyl)piperidin-4-yl]amino}-1H-pyrazolo[4,3-c]isoquinoline-7-carbothioamide]",
0.554 µM,"CCS(=O)(=O)N1CCC(Nc2n[nH]c3c2nc(-c2c(F)cccc2F)c2cc(C(N)=O)ccc23)CC1 [Example 18, 5-(2,6-difluorophenyl)-3-{[1-(ethylsulphonyl)piperidin-4-yl]amino}-1H-pyrazolo[4,3-c]isoquinolin-7-carboxamide]",
0.488 µM,"CS(=O)(=O)N1CCC(Nc2n[nH]c3c2nc(-c2c(F)cccc2F)c2cc(C=O)ccc23)CC1 [Example 15, 5-(2,6-difluorophenyl)-3-{[1-(methylsulphonyl)piperidin-4-yl]amino}-1H-pyrazolo[4,3-c]isoquinoline-7-carbaldehyde]",
0.456 µM,"NS(=O)(=O)N1CCC(Nc2n[nH]c3c2nc(-c2c(F)cccc2F)c2cc(CO)ccc23)CC1 [Example 27, 4-{[5-(2,6-difluorophenyl)-7-(hydroxymethyl)-1H-pyrazolo[4,3-c]isoquinolin-3-yl]amino}piperidine-1-sulphonamide]",
0.451 µM,"CCS(=O)(=O)N1CCC(Nc2n[nH]c3c2nc(-c2c(F)cccc2F)c2cc(C=O)ccc23)CC1 [Example 19, 5-(2,6-difluorophenyl)-3-{[1-(ethylsulphonyl)piperidin-4-yl]amino}-1H-pyrazolo[4,3-c]isoquinoline-7-carbaldehyde]",
0.413 µM,"NC(=O)c1ccc2c(c1)c(-c1c(F)cccc1F)nc1c(NC3CCN(S(=O)(=O)C4CC4)CC3)n[nH]c12 [Example 14, 5-(2,6-difluorophenyl)-3-{[1-(cyclopropylsulphonyl)piperidin-4-yl]amino}-1H-pyrazolo[4,3-c]isoquinoline-7-carboxamide]",
0.411 µM,"NC(=O)c1ccc2c(c1)c(-c1c(F)cccc1F)nc1c(NC3CCN(S(N)(=O)=O)CC3)[nH]nc12 [Example 22, 5-(2,6-difluorophenyl)-3-[(1-sulphamoylpiperidin-4-yl)amino]-2H-pyrazolo[4,3-c]isoquinoline-7-carboxamide]",
0.259 µM,"CS(=O)(=O)N1CCC(Nc2n[nH]c3c2nc(-c2c(F)cccc2F)c2cc(C(N)=O)ccc23)CC1 [Example 1, 5-(2,6-difluorophenyl)-3-{[1-(methylsulphonyl)piperidin-4-yl]amino}-1H-pyrazolo[4,3-c]isoquinoline-7-carboxamide]",
0.23 µM,"NS(=O)(=O)N1CCC(Nc2n[nH]c3c2nc(-c2c(F)cccc2F)c2cc(F)ccc23)CC1 [Example 28, 4-{[5-(2,6-difluorophenyl)-7-fluoro-1H-pyrazolo[4,3-c]isoquinolin-3-yl]amino}piperidine-1-sulphonamide]",
0.138 µM,"CCS(=O)(=O)N1CCC(Nc2n[nH]c3c2nc(-c2c(F)cccc2F)c2cc(C=NO)ccc23)CC1 [Example 20, 5-(2,6-difluorophenyl)-3-{[1-(ethylsulphonyl)piperidin-4-yl]amino}-1H-pyrazolo[4,3-c]isoquinoline-7-carbaldehyde oxime]",
0.1 µM,"CS(=O)(=O)N1CCC(Nc2n[nH]c3c2nc(-c2c(F)cccc2F)c2cc(C=NO)ccc23)CC1 [Example 2, 5-(2,6-difluorophenyl)-3-{[1-(methylsulphonyl)piperidin-4-yl]amino}-1H-pyrazolo[4,3-c]isoquinoline-7-carbaldehyde oxime]",
